In PubChem BioAssay AID2074 (Sanford-Burnham Center for Chemical Genomics, 2009):

Target: Dual specificity protein phosphatase 3 (Homo sapiens) (UniProt P51452)
Test: Biochemical DiFMUP fluorescent assay for VHR phosphatase inhibition, SAR follow up (AID 2074)
Details: recombinant VHR phosphatase, DiFMUP fluorescence

Dual specificity protein phosphatase 3 (Homo sapiens), sequence (P51452 whole entry, looked up): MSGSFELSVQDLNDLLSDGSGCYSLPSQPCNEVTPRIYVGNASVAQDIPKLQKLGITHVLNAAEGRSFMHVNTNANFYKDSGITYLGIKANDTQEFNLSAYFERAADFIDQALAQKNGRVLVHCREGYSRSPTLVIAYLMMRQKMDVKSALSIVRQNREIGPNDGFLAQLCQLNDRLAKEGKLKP

O=C1/C(=C/c2cn(-c3ccccc3)nc2-c2ccc(OCc3ccc(Cl)cc3)cc2)SC(=S)N1CCS(=O)(=O)O
IC50: 18 nM

O=C1/C(=C/c2cn(-c3ccccc3)nc2-c2ccc(Cl)cc2)SC(=S)N1CCS(=O)(=O)O
IC50: 1800 nM

Cc1ccc(-c2nn(-c3ccccc3)cc2/C=C2\SC(=S)N(CCS(=O)(=O)O)C2=O)cc1
IC50: 3100 nM

O=C1/C(=C/c2cn(-c3ccccc3)nc2-c2ccc(OCc3ccccc3)cc2)SC(=S)N1CCS(=O)(=O)O
IC50: 78 nM

COc1ccc(-c2nn(-c3ccccc3)cc2/C=C2\SC(=S)N(CCS(=O)(=O)O)C2=O)cc1
IC50: 1800 nM

O=C1/C(=C/c2cn(-c3ccccc3)nc2-c2ccc(OCc3ccccc3Cl)cc2)SC(=S)N1CCS(=O)(=O)O
IC50: 71 nM

O=C1/C(=C/c2cn(-c3ccccc3)nc2-c2ccc(S(=O)(=O)N3CCOCC3)cc2)SC(=S)N1CCS(=O)(=O)O
IC50: 2400 nM
